Article PMC11396746, “Stability Evaluation and Pharmacokinetic Profiling of Vepdegestrant in Rodents Using Liquid Chromatography–Tandem Mass Spectrometry” (Molecules, 2024)
Read-outs that look alike come from different tables or passages of the source.

Tests used:
[1] = Stability of vepdegestrant in mouse plasma under storage conditions (method validation); type: in vitro ADME
Protocol: (§1) The results were within ±15% RE under all storage conditions, including at room temperature for 6 h, after three freeze–thaw cycles, at −20 °C for 4 weeks, and in an autosampler for 24 h after sample preparation.
(§2) Stability was tested for vepdegestrant in biological samples at LQC and HQC under specific conditions: Short-term stability at room temperature for 6 h, three freeze–thaw cycles, long-term stability at −20 °C for 4 weeks, and pretreated samples in an autosampler for 24 h. The stability test was performed via five replicates analysis, with the acceptance criteria being an RE within ±15% at LQC and HQC levels.

[2] = Stability of vepdegestrant in rat plasma under storage conditions (method validation); type: in vitro ADME
Protocol: as §1, §2

[3] = pH stability in buffer solutions (pH 2-10) and PBS pH 7.4; type: physicochemical; conditions: for vepdegestrant remaining: 2 h, 0.1 µg/mL
Protocol: The physicochemical stability of vepdegestrant was determined using various pH buffers (pH 2.0–10.0) and plasma and microsomes.
A solution of vepdegestrant in methanol (10 µL) was added to buffer solutions at pH 2, 4, 6, 8, and 10 or pH 7.4 PBS (490 µL), yielding a final concentration of 0.1 µg/mL, and incubated at 37 °C, with 100 rpm in a water bath. At 0, 0.5, 1, and 2 h post-incubation, the incubation mixture (50 µL) was transferred to microtubes containing ice-cold ACN solution (200 µL) with IS to terminate the reaction. The mixture was vortexed thoroughly for 10 min. Subsequently, the supernatant (100 µL) was taken, and 5 µL was injected for HPLC-MS/MS analysis.

[4] = Metabolic stability in dog liver microsomes; type: in vitro ADME
Protocol: (§3) The metabolic stability of vepdegestrant was evaluated using liver microsomes obtained from mice, rats, dogs, and humans. Vepdegestrant was dissolved in DMSO to prepare a stock solution with a concentration of 0.1 mM. Microsomes (25 µL) were spiked into PBS (440 µL) and pre-incubated for 5 min. After pre-incubation, vepdegestrant stock solution (5 µL) was added, followed by an NADPH regenerating system (27 µL) to initiate the reaction. The composition of the reaction mixture was as follows: Vepdegestrant (final concentration 1 µM), mouse, rat, dog, human liver microsomes (protein concentration: 1 mg/mL), NADPH regenerating system (final concentrations: 1.3 mM NADP^+, 3.3 mM glucose-6-phosphate, 0.4 U/mL glucose-6-phosphate dehydrogenase, and 3.3 mM magnesium chloride), and PBS (pH 7.4). At 5, 15, 30, and 60 min after starting the reaction, aliquots (50 µL) were taken and added to ice-cold ACN with an IS (200 µL) to terminate the reaction. For the zero-time samples, aliquots were taken before adding NADPH. Subsequently, the mixture was vigorously mixed for 10 min and centrifuged at 17,054 g under 25 °C for 10 min. For analysis, 5 µL of the supernatant was injected into the HPLC-MS/MS system. In addition, the stability of vepdegestrant in rat liver microsomes was assessed in the absence of NADPH or NADPH and microsomes (PBS only). […]

[5] = Metabolic stability in human liver microsomes; type: in vitro ADME
Protocol: as §3

[6] = Stability in PBS only (control of microsomal stability test, no NADPH and no microsomes); type: physicochemical; conditions: PBS (pH 7.4), 1 h incubation
Protocol: as §3

[7] = Pharmacokinetic study in male ICR mice; type: in vivo; conditions: mouse
Protocol: Twelve healthy male ICR mice (6 weeks old, 27.5–30.5 g) and 10 healthy male Sprague–Dawley (SD) rats (7 weeks old, 195.5–212.0 g) were acquired from Orient Bio Inc. (Seongnam, Republic of Korea) and used for PK studies. The animals were kept in rooms in a temperature range of 20–25 °C, humidity of 40–60%, and a 12-h light/dark cycle. Before the experiment, mice were fasted for 4 h, whereas rats were fasted for 14 h, with only water provided during the fasting period. After 4 h of drug administration, animals were provided with free access to food and water. All animal experiments were approved by the Institutional Animal Care and Use Committee of the Chungnam National University (202310A-CNU-178; Daejeon, Republic of Korea).
For the PK studies in mice, a vepdegestrant dosing solution was prepared using a combination of DMSO, PEG400, and saline (5:25:70, v/v/v). The dosing solution was administered intravenously (IV, 2 mg/kg) through the tail vein or orally (PO, 5 mg/kg) through a gavage needle. The dose volume for both routes was 10 mL/kg. Blood samples (50 μL) were collected via the retro-orbital plexus at 0.05 (IV only), 0.25, 0.5, 1, 2, 4, 8, and 24 h post vepdegestrant administration using heparin-coated microcapillaries. Blood samples were immediately centrifuged at 12,032 g under 25 °C for 5 min, and plasma aliquots (20 μL) were stored at −20 °C until HPLC-MS/MS analysis.
The collected plasma samples from mice or rats (20 µL) were added with IS (20 µL) and ACN (160 µL). Subsequently, the mixture was vigorously mixed for 10 min and centrifuged at 17,054× g under 25 °C for 10 min. An aliquot of the supernatant (100 μL) was taken, and a volume of 5 μL was injected for HPLC-MS/MS analysis. PK parameters were calculated using Phoenix® 8.3 software (Certara L.P., Princeton, NJ, USA), as described previously.

[8] = 1 month at −20 °C, nominal 3 ng/mL
[9] = 1 month at −20 °C, nominal 900 ng/mL
[10] = 6 h at room temperature (25 °C), nominal 3 ng/mL
[11] = 6 h at room temperature (25 °C), nominal 900 ng/mL
[12] = Freeze–thaw three-cycle (−20 °C → RT), nominal 3 ng/mL
[13] = Freeze–thaw three-cycle (−20 °C → RT), nominal 900 ng/mL
[14] = Processed sample in 10 °C autosampler for 24 h, nominal 3 ng/mL
[15] = Processed sample in 10 °C autosampler for 24 h, nominal 900 ng/mL

Structure (SMILES): O=C1CC[C@H](N2Cc3cc(N4CCN(CC5CCN(c6ccc([C@@H]7c8ccc(O)cc8CC[C@@H]7c7ccccc7)cc6)CC5)CC4)ccc3C2=O)C(=O)N1 [vepdegestrant, Vepdegestrant]
- Stability in Mouse Plasma [1, 8]: 103.1 ± 5.4%
- Stability in Mouse Plasma [1, 9]: 107.7 ± 4.0%
- Stability in Mouse Plasma [1, 10]: 97.70 ± 4.12%
- Stability in Mouse Plasma [1, 11]: 110.7 ± 2.8%
- Stability in Mouse Plasma [1, 12]: 99.78 ± 1.60%
- Stability in Mouse Plasma [1, 13]: 103.3 ± 4.1%
- Stability in Mouse Plasma [1, 14]: 104.0 ± 7.2%
- Stability in Mouse Plasma [1, 15]: 98.49 ± 8.79%
- Stability in Rat Plasma [2, 8]: 98.83 ± 12.58%
- Stability in Rat Plasma [2, 9]: 104.3 ± 8.5%
- Stability in Rat Plasma [2, 10]: 100.3 ± 7.1%
- Stability in Rat Plasma [2, 11]: 99.59 ± 4.12%
- Stability in Rat Plasma [2, 12]: 98.70 ± 7.09%
- Stability in Rat Plasma [2, 13]: 94.98 ± 1.40%
- Stability in Rat Plasma [2, 14]: 99.86 ± 0.84%
- Stability in Rat Plasma [2, 15]: 92.18 ± 6.32%
- half-life at 0.1 µg/mL ([3]; PBS pH 7.4, pH 7.4 (PBS), 37 °C): 0.5 h
- half-life at 0.1 µg/mL ([3]; pH 2 buffer solution, pH 2, 37 °C): 7.35 h
- vepdegestrant remaining ([3]; pH 2 buffer, 37 °C): 82.6%
- half-life at 0.1 µg/mL ([3]; pH 4 buffer solution, pH 4, 37 °C): 0.77 h
- vepdegestrant remaining ([3]; pH 4–10 buffers, 37 °C): 2.25–12.8%
- half-life at 0.1 µg/mL ([3]; pH 6 buffer solution, pH 6, 37 °C): 0.4 h
- half-life at 0.1 µg/mL ([3]; pH 8 buffer solution, pH 8, 37 °C): 0.38 h
- half-life at 0.1 µg/mL ([3]; pH 10 buffer solution, pH 10, 37 °C): 0.6 h
- remaining percentage of unconverted vepdegestrant ([4]; 60 min, 1 μM, with NADPH): 97.1%
- half-life at 1 µM ([4]; beagle, liver microsomes, pH 7.4): 9.85 h
- remaining percentage of unconverted vepdegestrant ([5]; 60 min, 1 μM, with NADPH): 98.3%
- half-life at 1 µM ([5]; liver microsomes, pH 7.4): 13.4 h
- vepdegestrant remaining [6]: 10.2%
- Vd ([7]; male, ICR, plasma, intravenous, 2 mg/kg, read-out: volume of distribution): > 1 L/kg
- Cmax ([7]; male, ICR, plasma, IV 2 mg/kg): 2180 ± 442 ng/mL
- MRT ([7]; male, ICR, plasma, IV 2 mg/kg): 4.61 ± 1.43 h
- Tmax ([7]; male, ICR, plasma, IV 2 mg/kg): 0.05 h
- clearance ([7]; male, ICR, plasma, IV 2 mg/kg): 5.22 mL/min/kg
- half-life ([7]; male, ICR, plasma, IV 2 mg/kg): 3.79 ± 1.15 h
- Vd ([7]; male, ICR, plasma, IV 2 mg/kg, read-out: Vss): 1.43 ± 0.472 L/kg
- Cmax ([7]; male, ICR, plasma, PO 5 mg/kg): 393 ± 133 ng/mL
- MRT ([7]; male, ICR, plasma, PO 5 mg/kg): 5.58 ± 1.34 h
- Tmax ([7]; male, ICR, plasma, PO 5 mg/kg): 1 h
- half-life ([7]; male, ICR, plasma, PO 5 mg/kg): 3.64 ± 1.4 h
- bioavailability ([7]; male, ICR, plasma, PO 5 mg/kg vs IV 2 mg/kg, read-out: BA (oral bioavailability)): 17.9 ± 4.35%
- AUCinf ([7]; IV 2 mg/kg): 6510 ± 1060 ng·h/mL
- AUClast ([7]; IV 2 mg/kg): 6400 ± 1080 ng·h/mL
- AUCinf ([7]; PO 5 mg/kg): 2910 ± 707 ng·h/mL
- AUClast ([7]; PO 5 mg/kg): 2870 ± 704 ng·h/mL
- clearance as % of liver blood flow ([7]; liver blood flow 5.4 L/h/kg): 5.8%
